Data set [1] deals with P-glycoprotein. The data set is described as follows: Efflux ratio of apparent permeability across basal to apical membrane over apical to basal membrane in human Caco-2 cells in absence of P-glycoprotein. The format is ADME, cell-based. (Passage across Caco-2 layers is used to estimate intestinal permeability.)
Data set [2] is described as follows: Metabolic stability in rat liver microsome assessed as half life […]. The format is ADME. The settings on record: liver microsomes. A general note: Liver microsomes are a subcellular fraction often used to study metabolism.
Data set [3] is described as follows: Aqueous solubility of compound. The settings on record: buffer. Format: physicochemical.
A short description of data set [4]: AUC in rat at 5 mg/kg, po. The settings on record: in vivo. The format is ADME, organism-based. Set-up: dose 5 mg/kg, route po.
Data set [5] in a line: Oral bioavailability in rat at 3 mg/kg. Format: ADME, organism-based. The settings on record: in vivo.
Data set [6] concerns the target Human immunodeficiency virus type 1 protease (Human immunodeficiency virus 1, UniProt Q72874). The experiment in a line: Inhibition of HIV-1 protease by FRET-based assay.
Data set [7] can be described thus: Equilibrium solubility of compound. Format: physicochemical.
Data set [8] relates to CEM-SS. The experiment in a line: Cytotoxicity against human CEM-SS cells assessed as inhibition of cell growth. Format: functional.
A short description of data set [9]: Water solubility of compound. The format is physicochemical.
Data set [10] is described as follows: Stability of compound in PBS at pH 7.4 assessed as half life. The format is physicochemical.
Data set [11] in a line: Stability of compound in PBS at pH 4.9 assessed as half life. Format: physicochemical.
Data set [12] in a line: Stability of compound in PBS at pH 5.5 assessed as half life. The format is physicochemical.
Data set [13] can be described thus: Stability of compound in PBS buffer at pH 7.3 assessed as half life. Format: physicochemical.
Data set [14] in a line: Solubility of compound at pH at 1 to 8. Format: physicochemical.

Converted amounts (≈) assume the structure as drawn. Some results are limits rather than exact numbers.

The term efflux ratio denotes the permeability from basolateral to apical divided by that in the opposite direction, in the common usage. As a reminder, the half-life is the time needed for the level to fall by half in the phase considered. For `CC(C)[C@@H](N)C(=O)O[C@H](CN1C[C@H]2CCCC[C@H]2C[C@H]1C(=O)NC(C)(C)C)[C@H](Cc1ccccc1)NC(=O)[C@H](CC(N)=O)NC(=O)c1ccc2ccccc2n1`, in [1], the efflux ratio amounted to 1.2. Besides, in [2], the half-life turned out to be 56 min. By solubility is commonly meant how much of the substance goes into solution per volume. Read a low solubility as a poorly soluble substance. Usually AUC stands for concentration integrated over time. High values mean more exposure, low ones less exposure. `Cc1cccc(C)c1OCC(=O)N[C@@H](Cc1ccccc1)[C@H](C[C@H](Cc1ccccc1)NC(=O)[C@H](C(C)C)N1CCCNC1=O)OCOP(=O)([O-])[O-].[Na+].[Na+]` had a solubility in data set [3] of more than 5 mg/mL. The molecule further gave an AUC in data set [4] of 19650 ng·h/mL.

For orientation: bioavailability means dose-corrected exposure relative to a reference, in per cent. Read a low bioavailability as poor availability. Regarding `CC(C)[C@H](N)C(=O)O[C@@H]1Cc2ccccc2[C@@H]1NC(=O)[C@H](Cc1ccccc1)C[C@H](O)CN1CCN(Cc2cccnc2)C[C@H]1C(=O)NC(C)(C)C`, the bioavailability in data set [5] turned out to be 32%. The IC50 is the point on the concentration scale where inhibition reaches its midpoint. `COc1ccc(S(=O)(=O)N(CC(C)C)C[C@@H](O)[C@H](Cc2ccccc2)NC(=O)CCC(=O)O)cc1`: in data set [6], the IC50 worked out at 0.0118 µM.

On to `CC(C)[C@H](N)C(=O)N[C@@H](C(=O)O[C@H](CN1C[C@H]2CCCC[C@H]2C[C@H]1C(=O)NC(C)(C)C)[C@H](Cc1ccccc1)NC(=O)[C@H](CC(N)=O)NC(=O)c1ccc2ccccc2n1)C(C)C`, for which the efflux ratio in data set [1] was 1.2. Also, the half-life in data set [2] was found to be 178 min. Broadly, the solubility (thermodynamic) is solubility found after equilibrating the solid with the medium. `CC(C)CN(C[C@@H](O)[C@H](Cc1ccccc1)NC(=O)O[C@H]1CCOC1)S(=O)(=O)c1ccc(N)cc1` displayed a thermodynamic solubility in [7] of 160 µM (≈ 80.9 µg/mL). As a reminder, the CC50 is the concentration at which the toxic effect on the cells reaches its halfway point. Regarding `CCCCCCCCCCCCCCCC(=O)OCC(COC(=O)CCCCCCCCCCCCCCC)OC(=O)CCC(=O)O[C@H](CN1C[C@H]2CCCC[C@H]2C[C@H]1C(=O)NC(C)(C)C)[C@H](Cc1ccccc1)NC(=O)[C@H](CC(N)=O)NC(=O)c1ccc2ccccc2n1`, the CC50 in [8] is more than 100 µM. On to `Cc1ccccc1OCC(=O)O[C@H](C(=O)N1CSC[C@H]1C(=O)NC(C)(C)C)[C@@H](N)Cc1ccccc1.Cl`, for which the solubility in data set [9] was 15 mg/mL. Besides, the results for the half-life in data set [10], in data set [11] and in data set [12] were less than 1 min, 19.6 min and 2.4 min, respectively. With `CC(C)(C)NC(=O)[C@H]1C[C@@H]2CCCC[C@@H]2CN1C[C@@H](OC(=O)CCCCO[C@H]1O[C@H](CO)[C@@H](O)[C@H](O)[C@@H]1O)[C@H](Cc1ccccc1)NC(=O)[C@H](CC(N)=O)NC(=O)c1ccc2ccccc2n1`, the half-life in data set [13] was 50 h. Molecule `CC(C)CN(C[C@@H](OP(=O)([O-])[O-])[C@H](Cc1ccccc1)NC(=O)O[C@H]1CCOC1)S(=O)(=O)c1ccc(N)cc1.[Na+].[Na+]` [FOSAMPRENAVIR SODIUM] yielded a solubility in data set [14] of more than 3 mg/mL. Take `CC(C)[C@@H](N)C(=O)N[C@@H](C(=O)O[C@H](CN1C[C@H]2CCCC[C@H]2C[C@H]1C(=O)NC(C)(C)C)[C@H](Cc1ccccc1)NC(=O)[C@H](CC(N)=O)NC(=O)c1ccc2ccccc2n1)C(C)C`: the half-life in [2] stood at 296 min.

In the case of `Cc1c(OC(=O)CCCCO[C@H]2O[C@H](CO)[C@@H](O)[C@H](O)[C@@H]2O)cccc1C(=O)N[C@@H](CSc1ccccc1)[C@H](O)CN1C[C@H]2CCCC[C@H]2C[C@H]1C(=O)NC(C)(C)C`, in data set [13], the half-life was 50 h. In [9], `Cc1cccc(C)c1OCC(=O)O[C@H](C(=O)N1CSC[C@H]1C(=O)NC(C)(C)C)[C@@H](N)Cc1ccccc1.Cl` had a solubility of 15 mg/mL. Further, the results for the half-life in data set [10], in data set [11] and in data set [12] were less than 1 min, 23.8 min and 4.2 min, respectively. For `CC(C)[C@H](N)C(=O)O[C@H](CN1C[C@H]2CCCC[C@H]2C[C@H]1C(=O)NC(C)(C)C)[C@H](Cc1ccccc1)NC(=O)[C@H](CC(N)=O)NC(=O)c1ccc2ccccc2n1`, the efflux ratio in [1] was 1.2. Besides, in [2], the half-life is 47 min. In data set [9], `Cc1ccccc1OCC(=O)O[C@H](C(=O)N1CSC(C)(C)[C@H]1C(=O)NC(C)(C)C)[C@@H](N)Cc1ccccc1.Cl` returned a solubility of 14 mg/mL. In addition, the half-life is less than 1 min in data set [10], 20.8 min in data set [11] and 2.6 min in data set [12]. Consider `CC(C)CN(C[C@@H](OP(=O)(O)O)[C@H](Cc1ccccc1)NC(=O)O[C@H]1CCOC1)S(=O)(=O)c1ccc(N)cc1` [FOSAMPRENAVIR], for which the solubility in data set [14] was more than 3 mg/mL. As to `Cc1c(OC(=O)CCCCO[C@H]2O[C@H](CO)[C@@H](O)[C@H](O)[C@@H]2O)cccc1C(=O)N[C@@H](CSc1ccccc1)[C@@H](CN1C[C@H]2CCCC[C@H]2C[C@H]1C(=O)NC(C)(C)C)OC(=O)CCCCO[C@H]1O[C@H](CO)[C@@H](O)[C@H](O)[C@@H]1O`, the half-life in [13] was 50 h. Turning to `CC(C)(C)NC(=O)[C@@H]1CSCN1C(=O)[C@@H](OC(=O)COc1ccccc1)[C@@H](N)Cc1ccccc1.Cl`, the solubility in data set [9] worked out at 32 mg/mL. Also, the half-life was less than 1 min in [10], 21.2 min in [11] and 2.9 min in [12].

As to `CC(C)(C)NC(=O)[C@H]1N(C(=O)[C@@H](OC(=O)COc2ccccc2)[C@@H](N)Cc2ccccc2)CSC1(C)C.Cl`, the solubility in [9] is 21 mg/mL. In addition, the half-life in [10] is less than 1 min; in data set [11] it was 24 min; in [12], 3.2 min. Turning to `CC(C)(C)NC(=O)[C@@H]1CN(Cc2cccnc2)CCN1C[C@@H](O)C[C@@H](Cc1ccccc1)C(=O)N[C@H]1c2ccccc2C[C@H]1OC(=O)CCCCO[C@H]1O[C@H](CO)[C@@H](O)[C@H](O)[C@@H]1O`, the half-life in data set [13] was 50 h. Turning to `CC(C)[C@H](NC(=O)[C@H](N)C(C)C)C(=O)O[C@H](CN1C[C@H]2CCCC[C@H]2C[C@H]1C(=O)NC(C)(C)C)[C@H](Cc1ccccc1)NC(=O)[C@H](CC(N)=O)NC(=O)c1ccc2ccccc2n1`, the efflux ratio in [1] is 1.2. Also, the half-life in [2] was 224 min. As for `CCCCCCCCCCCCCCCC(=O)OCC(COC(=O)CCCCCCCCCCCCCCC)OC(=O)CCC(=O)O[C@@H](C[C@@H](Cc1ccccc1)C(=O)N[C@H]1c2ccccc2C[C@H]1O)CN1CCN(Cc2cccnc2)C[C@H]1C(=O)NC(C)(C)C`, the half-maximal cytotoxic concentration (CC50) in [8] was more than 100 µM.

`CC(C)(C)NC(=O)[C@@H]1CN(Cc2cccnc2)CCN1C[C@H](C[C@@H](Cc1ccccc1)C(=O)N[C@H]1c2ccccc2C[C@H]1OC(=O)CCCCO[C@H]1O[C@H](CO)[C@@H](O)[C@H](O)[C@@H]1O)OC(=O)CCCCO[C@H]1O[C@H](CO)[C@@H](O)[C@H](O)[C@@H]1O`: in [13], the half-life was 50 h.

In the case of `CCCCCCCC/C=C\CCCCCCCC(=O)OCC(COC(=O)CCCCCCC/C=C\CCCCCCCC)OC(=O)CCC(=O)O[C@@H](C[C@@H](Cc1ccccc1)C(=O)N[C@H]1c2ccccc2C[C@H]1O)CN1CCN(Cc2cccnc2)C[C@H]1C(=O)NC(C)(C)C`, the CC50 in data set [8] is more than 100 µM.

The molecule `CC(C)(C)NC(=O)[C@@H]1CN(Cc2cccnc2)CCN1C[C@@H](O)C[C@@H](Cc1ccccc1)C(=O)N[C@H]1c2ccccc2C[C@H]1O.O` had a bioavailability in data set [5] of 76%.

For `CCCC(O[C@@H](C[C@H](Cc1ccccc1)NC(=O)[C@@H](NC(=O)N(C)Cc1csc(C(C)C)n1)C(C)C)[C@H](Cc1ccccc1)NC(=O)OCc1cncs1)OP(=O)([O-])[O-].[Na+].[Na+]` (stereo not given in full), in data set [4], the exposure (AUC) stood at 450 ng·h/mL. For `CCCCCCCC/C=C\CCCCCCCC(=O)OCC(COC(=O)CCCCCCC/C=C\CCCCCCCC)OC(=O)CCC(=O)O[C@H](CN1C[C@H]2CCCC[C@H]2C[C@H]1C(=O)NC(C)(C)C)[C@H](Cc1ccccc1)NC(=O)[C@H](CC(N)=O)NC(=O)c1ccc2ccccc2n1`, the CC50 in data set [8] was more than 100 µM.

`Cc1cccc(C)c1OCC(=O)O[C@H](C(=O)N1CSC(C)(C)[C@H]1C(=O)NC(C)(C)C)[C@@H](N)Cc1ccccc1.Cl`: the half-life is less than 1 min in data set [10], 24.8 min in data set [11] and 4.5 min in data set [12].

The values above are taken from ChEMBL document CHEMBL5260814, “Design strategies in the prodrugs of HIV-1 protease inhibitors to improve the pharmaceutical properties” (Eur J Med Chem, 2017).
